Data from patent US20250289827A1, “MORPHIC FORMS OF A MUTANT BRAF DEGRADER AND METHODS OF MANUFACTURE THEREOF” (C4 THERAPEUTICS, INC., priority 2022, published 2025).
“Also recorded” adds a separate entry of the source.

Columns and labels:
[1] = system: A2058 human melanoma xenografts; assay: Efficacy and body weight in A2058 xenografts (Example 39); type: in vivo; conditions: for Tumor Size on PG-D24 / Tumor Size on PG-D28 / Tumor Volume Trace over Time: Mean ± SEM; for Antitumor activity compared with vehicle group: one-way ANOVA, Dunnett
Description: Compound 1, encorafenib and dabrafenib were administered to BALB/c nude mice bearing A2058 xenografts orally for 28 days. Compound 1 was dosed twice per day (BID) and dosed at 10 mg/kg from day 0. Encorafenib and dabrafenib were dosed daily (QD) from day 1. Encorafenib was dosed at 35 mg/kg. Dabrafenib was dosed at 100 mg/kg.
Each mouse was inoculated subcutaneously at the right flank with A2058 cells (5×106) in 0.2 mL of PBS supplemented with Matrigel (PBS:Matrigel=1:1) for tumor development. Animals were grouped for efficacy study when the average tumor volume reached 130 mm^3 on day 7 after tumor inoculation and 412 mm^3 for PKPD study on day 14.
At the time of routine monitoring, the animals were checked daily for any effects of tumor growth and treatments on normal behavior such as mobility, food and water consumption (by looking only), body weight gain/loss (body weights were measured twice weekly), eye/hair matting and any other abnormal effect as stated in the protocol. Death and observed clinical signs were recorded on the basis of the numbers of animals within each subset.
Prior to the onset of drug treatment, mice were measured for tumor size in two dimensions using a caliper, and the tumor volume (mm^3) was calculated using formula V=0.5 a×b^2 where a and b are the long and short diameters of the tumor in mm, respectively. Mice were randomized into different treatment groups based on the tumor volume.
The major endpoint was to see if the tumor growth could be delayed or mice could be cured. The tumor size was then used for calculations of T/C value. The T/C value (in percent) is an indication of antitumor effectiveness; T and C are the mean volumes of the treated and control groups, respectively on specified day.
Tumor growth inhibition (TGI) was calculated for each group using the formula: TGI (%) 20=[1−(Ti−T0)/(Ci−C0)]×100; Ti is the average tumor volume of a treatment group on a given day, TO is the average tumor volume of the treatment group on the day of treatment start, Ci is the average tumor volume of the vehicle control group on the same day with Ti, and C0 is the average tumor volume of the vehicle group on the day of treatment start.
A one-way ANOVA followed by Dunnett's multiple comparison test was performed to compare tumor volume among vehicle group and treatment groups. All data were analyzed using GraphPad Prism, * indicates p<0.01, **** indicates p<0.0001 and ns indicates p>0.05.

BRAF^V600E = BRAF^V600E (Homo sapiens, UniProt P15056, V600E); assay: Western Blot of BRAF (V600E) in A2058 tumor; type: in vivo; conditions: single oral dose; Compound 1 10 mg/kg, encorafenib 35 mg/kg, dabrafenib 100 mg/kg
BRAF^V600E, sequence (P15056 whole entry V600E): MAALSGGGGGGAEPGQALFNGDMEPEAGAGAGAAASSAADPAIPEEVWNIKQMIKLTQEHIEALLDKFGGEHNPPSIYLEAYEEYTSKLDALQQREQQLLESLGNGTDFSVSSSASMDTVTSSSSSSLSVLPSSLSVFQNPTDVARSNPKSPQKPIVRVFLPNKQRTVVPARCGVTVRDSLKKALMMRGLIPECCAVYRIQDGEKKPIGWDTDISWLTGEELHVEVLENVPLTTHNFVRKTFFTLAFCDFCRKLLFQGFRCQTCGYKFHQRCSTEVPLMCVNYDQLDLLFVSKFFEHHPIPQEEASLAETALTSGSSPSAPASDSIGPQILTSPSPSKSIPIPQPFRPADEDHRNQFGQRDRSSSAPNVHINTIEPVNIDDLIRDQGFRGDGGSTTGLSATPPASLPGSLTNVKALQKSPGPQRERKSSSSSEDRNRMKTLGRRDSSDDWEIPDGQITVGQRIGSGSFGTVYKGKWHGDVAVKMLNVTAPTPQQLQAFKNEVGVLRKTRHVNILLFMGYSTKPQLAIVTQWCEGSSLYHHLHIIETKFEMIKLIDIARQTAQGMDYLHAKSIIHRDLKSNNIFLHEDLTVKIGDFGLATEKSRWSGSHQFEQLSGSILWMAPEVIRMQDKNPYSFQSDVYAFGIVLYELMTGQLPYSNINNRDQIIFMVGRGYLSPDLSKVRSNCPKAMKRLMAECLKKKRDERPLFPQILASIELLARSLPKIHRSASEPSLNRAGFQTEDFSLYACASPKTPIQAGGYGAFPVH
Description: For the PKPD study, agents were administered to BALB/c nude mice bearing A2058 human melanoma xenografts. Compound 1, encorafenib and dabrafenib were dosed once orally on day 1. Compound 1 was dosed at 10 mg/kg, encorafenib was dosed at 35 mg/kg and dabrafenib was dosed at 100 mg/kg.
Previously snap-frozen samples were retrieved from −80° C. ultralow freezer, and 30-100 mg of tumor tissue was cut up. The tissue samples were placed in a 2 mL microcentrifuge tube, and 450 μL of RIPA buffer containing 1% Protease inhibitor cocktail and 1% phosphate inhibitor cocktail 2 were added to the tube. Tumor samples were grinded with Tissuelyser at 50 Hz for five minutes, and the tissue lysates were kept on ice for thirty minutes. Tissue lysates were centrifuged at 15,000 rpm at 4° C. for ten minutes. The supernatants were gently transferred to a new microcentrifuge tube and kept of ice. Protein concentrations in the supernatants were measured using the Pierce™ BCA Protein Assay Kit. Based on the result of BCA protein quantification, the samples were diluted to the same final concentration of 4 μg/μL using RIPA buffer, 4×LDS sample buffer, and 10× sample reducing agent. Diluted samples were heated at 100° C. for ten minutes. Remaining denatured samples were used for western blot analysis or kept in the −80° C. ultralow freezer for long term storage.
Extracted protein samples (5 μL per slot) were loaded to NuPAGE® Novex 4-12% Bis-Tris gel. Electrophoresis was run with MES running buffer at 80 V for thirty minutes, and 120 V for ninety minutes. Protein samples were transferred to nitrocellulose (NC) membranes with iBlot® 2 Gel Transfer Device (P3, seven minutes). The membrane was cut and parts of interest were kept. The membrane was washed with 5 to 10 mL of 1×TBST once for five minutes. Non-specific protein was blocked by 5-10 mL of 1×TBST with 5% nonfat milk at room temperature for one hour. The membrane was washed with 5-10 mL 1×TBST three times for five minutes each. […] Samples were imaged, and chemiluminescence was detected by Amersham Imager 680.

[2] = PG-D24, Compound 1 10 mg/kg BID, encorafenib 35 mg/kg QD, dabrafenib 100 mg/kg QD
[3] = PG-D24, Compound 1 10 mg/kg p.o. BID, Encorafenib 35 mg/kg p.o. QD, Dabrafenib 100 mg/kg p.o. QD
[4] = PG-D24, treated / control average tumor volume, Compound 1 10 mg/kg p.o. BID, Encorafenib 35 mg/kg p.o. QD, Dabrafenib 100 mg/kg p.o. QD
[5] = PG-D28, Compound 1 10 mg/kg p.o. BID, Encorafenib 35 mg/kg p.o. QD, Dabrafenib 100 mg/kg p.o. QD
[6] = PG-D28, treated / control average tumor volume, Compound 1 10 mg/kg p.o. BID, Encorafenib 35 mg/kg p.o. QD, Dabrafenib 100 mg/kg p.o. QD
[7] = day 0 (baseline), Compound 1 10 mg/kg p.o. BID × 28 days, Encorafenib 35 mg/kg p.o. QD × 28 days, Dabrafenib 100 mg/kg p.o. QD × 28 days
[8] = day 3, Compound 1 10 mg/kg p.o. BID, Encorafenib 35 mg/kg p.o. QD, Dabrafenib 100 mg/kg p.o. QD
[9] = day 7, Compound 1 10 mg/kg p.o. BID, Encorafenib 35 mg/kg p.o. QD, Dabrafenib 100 mg/kg p.o. QD
[10] = day 10, Compound 1 10 mg/kg p.o. BID, Encorafenib 35 mg/kg p.o. QD, Dabrafenib 100 mg/kg p.o. QD
[11] = day 14, Compound 1 10 mg/kg p.o. BID, Encorafenib 35 mg/kg p.o. QD, Dabrafenib 100 mg/kg p.o. QD
[12] = day 17, Compound 1 10 mg/kg p.o. BID, Encorafenib 35 mg/kg p.o. QD, Dabrafenib 100 mg/kg p.o. QD
[13] = day 21, Compound 1 10 mg/kg p.o. BID, Encorafenib 35 mg/kg p.o. QD, Dabrafenib 100 mg/kg p.o. QD
[14] = day 24, Compound 1 10 mg/kg p.o. BID, Encorafenib 35 mg/kg p.o. QD, Dabrafenib 100 mg/kg p.o. QD
[15] = day 28, Compound 1 10 mg/kg p.o. BID, Encorafenib 35 mg/kg p.o. QD, Dabrafenib 100 mg/kg p.o. QD

| SMILES | T/C [1, 2] [%] | TGI [1, 2] [%] | TV (mean tumor volume) [1, 2] [mm^3] | TGI [1, 3] [%] | Tumor Size on PG-D24 [1, 3] [mm^3] | Antitumor activity compared with vehicle group ([1]; PG-D24) | T/C [1, 4] [%] | TGI [1, 5] [%] | Tumor Size on PG-D28 [1, 5] [mm^3] | T/C [1, 6] [%] | Tumor Volume Trace over Time [1, 7] [mm^3] | Tumor Volume Trace over Time [1, 8] [mm^3] | Tumor Volume Trace over Time [1, 9] [mm^3] | Tumor Volume Trace over Time [1, 10] [mm^3] | Tumor Volume Trace over Time [1, 11] [mm^3] | Tumor Volume Trace over Time [1, 12] [mm^3] | Tumor Volume Trace over Time [1, 13] [mm^3] | Tumor Volume Trace over Time [1, 14] [mm^3] | Tumor Volume Trace over Time [1, 15] [mm^3] | Expression of BRAF in A2058 tumor (BRAF^V600E) | further results |
| --- | --- | --- | --- | --- | --- | --- | --- | --- | --- | --- | --- | --- | --- | --- | --- | --- | --- | --- | --- | --- | --- |
| CCN(C)S(=O)(=O)Nc1ccc(F)c(Oc2ccc3ncn([C@H]4COC5(CCN(C(=O)CC6(O)CCN(c7cc8c(cc7F)c(N7CCC(=O)NC7=O)nn8C)CC6)CC5)C4)c(=O)c3c2)c1C#N [Compound 1, (3R)-3-[6-[2-cyano-3-[[ethyl(methyl)sulfamoyl]amino]-6-fluorophenoxy]-4-oxoquinazolin-3-yl]-8-[2-[1-[3-(2,4-dioxo-1,3-diazinan-1-yl)-5-fluoro-1-methylindazol-6-yl]-4-hydroxypiperidin-4-yl]acetyl]-1-oxa-8-azaspiro[4.5]decane] | 37.06 | 66.37 | 933 | 66.37 | 933 ± 119 | significant antitumor activity | 37.06 | 63.41 | 1139 ± 153 | 39.45 | 130 ± 4 | 167 ± 8 | 205 ± 12 | 267 ± 16 | 414 ± 38 | 562 ± 53 | 711 ± 79 | 933 ± 119 | 1139 ± 153 | inhibited the expression of BRAF from six to forty-eight hours post dose; also recorded: inhibited the expression of BRAF from six hours to forty-eight hours post dose | – |
| COC(=O)N[C@@H](C)CNc1nccc(-c2cn(C(C)C)nc2-c2cc(Cl)cc(NS(C)(=O)=O)c2F)n1 [encorafenib] | 77.22 | 24.04 | 1944 | 24.04 | 1944 ± 160 | no significant antitumor activity | 77.22 | 19.37 | 2354 ± 201 | 81.52 | 130 ± 4 | 189 ± 9 | 302 ± 23 | 477 ± 45 | 756 ± 64 | 1122 ± 120 | 1472 ± 142 | 1944 ± 160 | 2354 ± 201 | no effect on the expression of BRAF | – |
| CC(C)(C)c1nc(-c2cccc(NS(=O)(=O)c3c(F)cccc3F)c2F)c(-c2ccnc(N)n2)s1 [dabrafenib] | 77.37 | 23.87 | 1948 | 23.87 | 1948 ± 150 | no significant antitumor activity | 77.37 | 23.96 | 2227 ± 140 | 77.13 | 130 ± 4 | 203 ± 6 | 361 ± 28 | 572 ± 29 | 921 ± 74 | 1232 ± 105 | 1558 ± 132 | 1948 ± 150 | 2227 ± 140 | no effect on the expression of BRAF | Body weight loss (individual mice) ([1]; 100 mg/kg, Group 4, PG-D21 (one mouse also PG-D28)): over 10% |
